Results published in patent publication US5670482A, “Neuropeptide Y antagonists” (Glaxo Wellcome Inc., priority 1992, dated 1997).
pIC50: −log10 of the molar value. Positions of bridges follow the written chain, without caps; N, C: chain ends. Chains are numbered I, II in the order given. No end group written: not given here.

Legend:
[1] = tested on: NPY-induced increase of perfusion pressure in isolated perfused rat kidney; assay: Isolated perfused rat kidney preparation; details: antagonist infused during 5 min, read-out: IC50 for the inhibition of the NPY-induced increase of perfusion pressure
Procedure: Male CD rats (200-400 g) are anaesthetised with a mixture of Acepromazine (2.8 mg/kg) and Kenamine (112 mg/kg) injected i.p. The rat's abdomen is opened through the midline. The renal arteries and descending aorta are cleaned and, with minimal disruption of blood flow, one kidney is cannulated through the proximal renal artery using a stainless steel 20G blunt-tipped needle attached to Tygon tubing and a peristaltic pump. As soon as the first ligature is complete and perfusion of the kidney starts (10 ml/min) and the kidney is removed from the animal and placed in a constant temperature perfusion chamber. The perfusion pressure is followed by an on-line Statham pressure transducer and changes recorded in a Grass Polygraph.
Administration of Drugs: Neuropeptide Y and other agonists are administered by a single bolus injection (0.1 ml) through an injection port situated about 6 inches from the tip of the needle (approximately 0.3 ml, total volume). Antagonists are infused during 5 min (0.15 ml/min) into the kidney through an injection port situtated before the perfusion pump to allow for good mixing and constant concentration (dilution of 0.15 ml into 10 ml). […]
Results: Using the above experimental procedure we have determined the IC50 for the inhibition of the NPY-induced increase of perfusion pressure for: […]

[2] = target: NPY receptors in rat brain membranes; assay: Radioreceptor binding assay (3H-NPY, rat brain membranes); details: 37° C.
Procedure: Rat brain membranes were incubated with ^3 H-NPY up to equilibrium at 37° C. in the presence of several peptides at different concentrations and in a final volume of 1 ml. Non-specific binding was determined by adding 100 nM of cold NPY. At the end of the incubation period the samples were either filtered (GF/C filter), or 0.5 ml of cold incubation buffer was added and the tubes centrifuged at 15,000 g for 10 min. The supernatant was discarded and the pellet or filters resuspended and counted by liquid scintillation. Results were processed using a computer programme that calculated IC50, Kd, Bmax and Hill coefficient by linear regression. IC50 results where available are shown in column (a) of the Table.

[3] = tested on: Human erythroleukemic (HEL) cells; assay: Intracellular calcium measurements in HEL cells (Fura-2); type: cell-based
Procedure: Human erythroleukemic (HEL) cells were loaded with Fura-2 (1 μM for 1 h), washed and then placed in a cuvette (5×10^5 cells in 2.5 ml) and excited simultaneously at 340 and 380 nm in a SLM spectrofluorometer. Fluorescence changes after the addition of NPY and/or peptide analogs were followed by recording emission at 510 nm. Calcium concentrations can be determined through a computer programme by using the ratio of fluorescence 340/380 nm. The agonistic activity of peptide analogs was tested by recording the fluorescence induced upon stimulation of the cells with 100 nM of the peptide and the antagonistic activity by observing the decrease in fluorescence induced by 5 nM NPY in the presence of the analog The results where available are indicated in column (c) of the Table.
The inhibition of the increase in the HEL cell intracellular calcium (induced by 5 nM NPY) achieved by 100 nM concentrations of each compound is shown in column (b) of the Table.

Row | pIC50 [1] | Substance | pIC50 [2] | HEL CELLS % Fluor (c) ([3]; agonistic activity: fluorescence induced by 100 nM of the peptide) | pIC50 ([3]; antagonism of 5 nM NPY-induced calcium signal, read-out: HEL CELLS IC50 (d)) | HEL CELLS % INHIB (b) ([3]; inhibition of increase in HEL cell intracellular calcium induced by 5 nM NPY, 100 nM compound)
1 | 8.60 | IleCysProCysTyrArgLeuArgTyr-NH2,Cyclic (2,2'),(4,4')-Disulfide Dimer (chain 1 ICPCYRLRY-NH2; chain 2 ICPCYRLRY-NH2; disulfide I:2-II:2, I:4-II:4; N-terminus assumed; SMILES CC[C@H](C)[C@H](N)C(=O)N[C@H]1CSSC[C@H](NC(=O)[C@@H](N)[C@@H](C)CC)C(=O)N2CCC[C@H]2C(=O)N[C@H](C(=O)N[C@@H](Cc2ccc(O)cc2)C(=O)N[C@@H](CCCNC(=N)N)C(=O)N[C@@H](CC(C)C)C(=O)N[C@@H](CCCNC(=N)N)C(=O)N[C@@H](Cc2ccc(O)cc2)C(N)=O)CSSC[C@@H](C(=O)N[C@@H](Cc2ccc(O)cc2)C(=O)N[C@@H](CCCNC(=N)N)C(=O)N[C@@H](CC(C)C)C(=O)N[C@@H](CCCNC(=N)N)C(=O)N[C@@H](Cc2ccc(O)cc2)C(N)=O)NC(=O)[C@@H]2CCCN2C1=O) | – | – | – | –
2 | 8.60 | IleCysProCysTyrArgLeuArgTyr-NH2,Cyclic (2,4'),(4,2')-Disulfide Dimer (chain 1 ICPCYRLRY-NH2; chain 2 ICPCYRLRY-NH2; disulfide (positions not given here); not fully specified (bridges)) | – | – | – | –
3 | – | IleCysProCysTyrArgLeuArgTyr-NH2,Cyclic(2,2'), (4,4')-Disulfide Dimer and IleCysProCysTyrArgLeuArgTyr-NH2,Cyclic(2,4'),(4,2')-Disulfide Dimer [Example 6] | 6.60 | 0% | 8.70 | 100%
